Test results published in patent US20260138961A1, “MODULATORS OF MITOCHONDRIAL DNA REPLICATION” (Pretzel Therapeutics, Inc., priority 2022, published 2026).

Target: T1, POLγA:A467T (Homo sapiens, UniProt P54098, A467T)
T1 sequence (P54098 1-1239 A467T): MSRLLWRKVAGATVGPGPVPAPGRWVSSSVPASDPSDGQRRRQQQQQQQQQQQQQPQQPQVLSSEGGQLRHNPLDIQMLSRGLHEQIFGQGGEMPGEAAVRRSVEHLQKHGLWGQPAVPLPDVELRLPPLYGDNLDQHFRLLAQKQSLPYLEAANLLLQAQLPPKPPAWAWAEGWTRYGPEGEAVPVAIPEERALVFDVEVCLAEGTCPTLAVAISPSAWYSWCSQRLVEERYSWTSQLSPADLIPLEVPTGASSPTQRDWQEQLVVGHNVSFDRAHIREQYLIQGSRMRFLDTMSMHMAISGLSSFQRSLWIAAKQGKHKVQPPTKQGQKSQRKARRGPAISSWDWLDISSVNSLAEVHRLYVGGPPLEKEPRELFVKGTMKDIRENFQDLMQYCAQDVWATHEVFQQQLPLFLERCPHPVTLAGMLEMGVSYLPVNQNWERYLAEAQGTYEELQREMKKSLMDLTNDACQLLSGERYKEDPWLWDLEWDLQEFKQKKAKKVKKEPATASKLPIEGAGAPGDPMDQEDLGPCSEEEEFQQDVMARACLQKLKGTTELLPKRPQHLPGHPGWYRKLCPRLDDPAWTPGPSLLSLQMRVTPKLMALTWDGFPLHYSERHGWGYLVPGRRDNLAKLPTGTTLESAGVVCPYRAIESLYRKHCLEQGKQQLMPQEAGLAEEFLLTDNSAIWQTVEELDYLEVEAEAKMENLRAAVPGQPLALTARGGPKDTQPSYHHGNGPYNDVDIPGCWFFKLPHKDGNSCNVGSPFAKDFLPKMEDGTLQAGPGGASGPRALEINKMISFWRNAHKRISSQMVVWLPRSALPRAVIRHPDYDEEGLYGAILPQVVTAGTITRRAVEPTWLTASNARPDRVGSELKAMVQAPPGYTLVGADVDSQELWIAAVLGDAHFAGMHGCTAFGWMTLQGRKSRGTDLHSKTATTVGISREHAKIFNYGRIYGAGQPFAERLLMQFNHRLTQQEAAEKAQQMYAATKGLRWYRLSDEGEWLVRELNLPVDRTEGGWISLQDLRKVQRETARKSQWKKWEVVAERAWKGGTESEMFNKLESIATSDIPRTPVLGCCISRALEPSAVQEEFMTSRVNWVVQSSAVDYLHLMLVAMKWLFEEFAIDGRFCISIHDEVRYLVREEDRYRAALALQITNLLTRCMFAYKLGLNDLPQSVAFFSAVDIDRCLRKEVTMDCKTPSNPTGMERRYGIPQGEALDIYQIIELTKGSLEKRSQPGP
T1 sequence (Q9UHN1 1-485 partner): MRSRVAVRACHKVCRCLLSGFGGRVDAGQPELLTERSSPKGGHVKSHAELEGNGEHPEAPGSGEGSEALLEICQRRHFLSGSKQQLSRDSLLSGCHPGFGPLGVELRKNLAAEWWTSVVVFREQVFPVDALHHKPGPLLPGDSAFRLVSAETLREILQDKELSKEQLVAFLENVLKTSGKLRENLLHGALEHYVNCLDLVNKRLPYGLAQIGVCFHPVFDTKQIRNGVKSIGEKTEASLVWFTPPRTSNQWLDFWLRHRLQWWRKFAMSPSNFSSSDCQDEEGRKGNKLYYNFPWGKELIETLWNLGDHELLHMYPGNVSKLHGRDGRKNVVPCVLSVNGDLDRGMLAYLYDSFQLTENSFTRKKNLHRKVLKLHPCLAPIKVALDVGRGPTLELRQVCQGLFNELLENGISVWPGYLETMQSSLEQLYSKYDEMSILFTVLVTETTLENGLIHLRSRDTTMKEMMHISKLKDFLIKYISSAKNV
Assay: DNA polymerization assay, POLγA:A467T mutant
Type: biochemical
Settings: stimulation of polymerase activity, primed M13mp18 ssDNA, 37° C. 2 hours; read-out: A467T AC50
Description: DNA Polymerization Assay to Monitor Effects on Human Wildtype POLγ and Four Disease-Causing Mutant Variants of Human POLγ.
The ability of small molecules to stimulate the polymerase activity of POLγ was analyzed in a quantitative fluorescence SYBR Green I assay with fluorescence intensity (FI) readout.
In the presence of dNTPs, wild type human POLγ and mutant derivatives thereof were incubated with single-stranded, circular M13mp18 ssDNA hybridized to a short DNA oligonucleotide that functions as a primer for initiation of DNA synthesis. POLγ and mutant derivatives thereof will extend the primer and use the M13mp18 molecule as a template to synthesize long stretches of double-stranded DNA. SYBR Green I, which is a double-stranded DNA-binding dye, was used to quantify formation of double-stranded DNA in the reaction. When bound to double-stranded DNA, SYBR Green I fluorescence increases by up to 100-fold.
The assay was performed in the 384-well plate format. Upon addition of compounds, changes in double-stranded DNA synthesis activity can be monitored by following effects on fluorescent intensity.
The reactions also contained the accessory POLγB subunit, and the human mitochondrial single-stranded DNA binding protein (mtSSB).
The DNA template mixture used in the assay contained 0.5 nM primed M13 mp18 ssDNA, 400 nM mtSSB, 0.1 mM Tris-HCl (pH 8.0), 0.1 mM dNTP, 10 mM MgCl2, 0.1 mg/mL BSA, 1 mM TCEP solution, and 0.02% Triton X-100. The DNA template mixture for the wild type protein contained either 100 μM dNTP, 1 μM dNTP, or 0.1 μM dNTP, designated in Table 2 as 100 μM, 1 μM, and 0.1 μM, respectfully.
Microplates with compounds (0.1 μL in each well) to be tested in the assay were prepared from 10 mM compound stocks in 100% DMSO, and equal amounts of DMSO without any compound were added to positive and negative control wells.
The protein mixture was dispensed (5 μL into each well) into compound plates and incubated at 37° C. for 15 minutes. After incubation, 5 μL of the DNA template mixture was dispensed into each well. The plates were then incubated at 37° C. for 2 hours.
During incubation, a combined stop buffer and detection reagent solution was prepared. The buffer contained 25 mM EDTA (pH 8.0), 0.02% Triton X-100, and SYBR Green I [Invitrogen] diluted 10,000× (for fluorescent readout). EDTA will stop the enzymatic reaction by chelating magnesium ions.

Row | AC50 | Molecule
1 | > 100 µM | O=S(=O)(Nc1csc(-c2ccccc2)n1)c1ccccc1 [Example 147, N-(2-phenylthiazol-4-yl)benzenesulfonamide]
2 | > 100 µM | Cc1ccc(S(=O)(=O)Nc2csc(-c3ccccc3)n2)c(C)c1 [Example 123, 2,4-dimethyl-N-(2-phenylthiazol-4-yl)benzenesulfonamide]
3 | > 100 µM | Cc1cnc(-c2cc(NS(=O)(=O)c3cc(C)c(Cl)cc3C)ccc2C)s1 [Example 103, 4-chloro-2,5-dimethyl-N-(4-methyl-3-(5-methylthiazol-2-yl)phenyl)benzenesulfonamide]
4 | 60 µM | Cc1ccc(C)c(S(=O)(=O)Nc2cccc(C(=O)N3CCCCC3C#N)c2)c1 (stereo not shown) [Example 2, N-(3-(2-cyanopiperidine-1-carbonyl)phenyl)-2,5-dimethylbenzenesulfonamide]
5 | 48 µM | Cc1ccc(C)c(S(=O)(=O)Nc2cccc(C(=O)N3CCCCC3)c2)c1 [Example 3, 2,5-dimethyl-N-(3-(piperidine-1-carbonyl)phenyl)benzene sulfonamide]
6 | 5 µM | Cc1cc(S(=O)(=O)Nc2cccc(-c3nccs3)c2)c(C)cc1Cl [Example 16, 4-chloro-2,5-dimethyl-N-(3-(thiazol-2-yl)phenyl)benzenesulfonamide]
7 | > 100 µM | Cc1cc(S(=O)(=O)Nc2cccc(C(=O)N3CCc4ncnc(C)c4C3)c2)c(C)cc1Cl [Example 114, 4-chloro-2,5-dimethyl-N-(3-(4-methyl-5,6,7,8-tetrahydropyrido [4,3-d]pyrimidine-6-carbonyl)phenyl)benzenesulfonamide]
8 | 55 µM | Cc1cc(S(=O)(=O)Nc2ccc3c(c2)CC(=O)N3)c(C)cc1Cl [Example 185, 4-chloro-2,5-dimethyl-N-(2-oxoindolin-5-yl)benzenesulfonamide]
9 | > 100 µM | Cc1cc(S(=O)(=O)Nc2cccc(C(=O)N3C[C@@H](F)C[C@H](F)C3)c2)c(C)cc1Cl [Example 115, 4-chloro-N-(3-((3S,5S)-3,5-difluoropiperidine-1-carbonyl)phenyl)-2,5-dimethylbenzenesulfonamide]
10 | > 100 µM | Cc1nc2c(NS(=O)(=O)c3cc(C)c(Cl)cc3C)cccc2s1 [Example 99, 4-chloro-2,5-dimethyl-N-(2-methylbenzo[d]thiazol-4-yl)benzenesulfonamide]
11 | > 100 µM | O=S(=O)(Nc1csc(-c2ccccc2)n1)c1cccc2nccnc12 [Example 128, N-(2-phenylthiazol-4-yl)quinoxaline-5-sulfonamide]
12 | 95 µM | Cc1ccc(C)c(S(=O)(=O)Nc2cccc(C(=O)N3CCCC[C@@H]3C)c2)c1 [Example 6, (S)-2,5-dimethyl-N-(3-(2-methylpiperidine-1-carbonyl)phenyl)benzenesulfonamide]
13 | > 100 µM | Cc1cc(Cl)ccc1S(=O)(=O)Nc1cccc(C(=O)N2CCC[C@H]2C)c1 [Example 116, (R)-4-chloro-2-methyl-N-(3-(2-methylpyrrolidine-1-carbonyl)phenyl)benzenesulfonamide]
14 | > 100 µM | Cc1cc(S(=O)(=O)Nc2cccc(C(=O)N3CCCOC(C)(C)C3)c2)c(C)cc1Cl [Example 106, 4-chloro-N-(3-(2,2-dimethyl-1,4-oxazepane-4-carbonyl)phenyl)-2,5-dimethylbenzenesulfonamide]
15 | > 100 µM | Cc1cnc(-c2cc(NS(=O)(=O)c3cc(C)c(Cl)cc3C)ccc2Cl)s1 [Example 111, 4-chloro-N-(4-chloro-3-(5-methylthiazol-2-yl)phenyl)-2,5-dimethylbenzenesulfonamide]
16 | > 100 µM | Cc1cc(S(=O)(=O)N[C@H]2CCCN(C(=O)N3CCCC3)C2)c(C)cc1Cl [Example 130, (S)-4-chloro-2,5-dimethyl-N-(1-(pyrrolidinee-1-carbonyl)piperidin-3-yl)benzenesulfonamide]
17 | > 100 µM | Cc1cc(S(=O)(=O)Nc2nc(-c3ccccc3)no2)c(C)cc1Cl [Example 143, 4-chloro-2,5-dimethyl-N-(3-phenyl-1,2,4-oxadiazol-5-yl)benzenesulfonamide]
18 | > 100 µM | Cc1cc(S(=O)(=O)Nc2cccc(-c3ncc(C(N)=O)s3)c2)c(C)cc1Cl [Example 92, 2-(3-((4-chloro-2,5-dimethylphenyl)sulfonamido)phenyl) thiazole-5-carboxamide]
19 | 33 µM | Cc1cc(S(=O)(=O)Nc2cc(F)cc(C(=O)N3CCC[C@H]3C)c2)c(C)cc1Cl [Example 13, (R)-4-chloro-N-(3-fluoro-5-(2-methylpyrrolidine-1-carbonyl)phenyl)-2,5-dimethylbenzenesulfonamide]
20 | > 100 µM | O=S(=O)(Nc1csc(-c2ccccc2)n1)c1ccc(Cl)cc1 [Example 120, 4-chloro-N-(2-phenylthiazol-4-yl)benzenesulfonamide]
21 | > 100 µM | Cc1cc(S(=O)(=O)Nc2cccc(C(=O)N(C(C)C)C3COC3)c2)c(C)cc1Cl [Example 112, 3-((4-chloro-2,5-dimethylphenyl)sulfonamido)-N-isopropyl-N-(oxetan-3-yl)benzamide]
22 | > 100 µM | Cc1cc(NS(=O)(=O)c2cc(C)c(Cl)cc2C)cc(-c2ncc(C)s2)c1 [Example 110, 4-chloro-2,5-dimethyl-N-(3-methyl-5-(5-methylthiazol-2-yl)phenyl)benzenesulfonamide]
23 | 5 µM | Cc1cc(S(=O)(=O)Nc2csc(-c3ccccc3)n2)c(Cl)cc1F [Example 136, 2-chloro-4-fluoro-5-methyl-N-(2-phenylthiazol-4-yl)benzenesulfonamide]
24 | > 100 µM | Cc1cc(S(=O)(=O)Nc2cccc(-c3ncc(C(=O)N(C)C)s3)c2)c(C)cc1Cl [Example 94, 2-(3-((4-chloro-2,5-dimethylphenyl)sulfonamido)phenyl)-N,N-dimethylthiazole-5-carboxamide]

Row | Molecule | AC50
25 | (R)-2,5-dimethyl-N-(3-(3-methylmorpholine-4-carbonyl)phenyl)benzenesulfonamide [Example 1] | 44 µM
